# Laboratory results published in patent US20200345746A1, “Oxazine Derivative for Use in the Prevention of Alzheimer's Disease in at Risk Patents” (Novartis AG, priority 2016, published 2020).
# Values joined by “and” are separate entries in the source; they are usually repeats but may differ in a detail not shown here. Equal values may be shown once.
# What was measured:
# in vivo = details: APOE4-TR, mouse; for AUC(0-t): po
# Aβ40 = Aβ40 in C57BL/6 mouse brain after chronic dosing (MSD assay); assay type: in vivo; details: for Average Aβ40 brain: mean ± SD, n = 4
# Procedure: Frozen mouse forebrains were weighed and homogenized in 9 volumes (w/v) of ice-cold TBS-Complete (20 mM Tris-HCl pH 7.4, 137 mM NaCl, 1× Complete [Protease Inhibitor Cocktail Tablets: 1 836 145, Roche Diagnostics GmbH, Penzberg, Germany]) by sonication (90% duty cycle, output control 5, 40-55 pulses, [Sonifier 450, Branson]). After homogenization several 50 μl aliquots were prepared for analysis and were stored at −80° C.
# Human Aβ peptide (1-40) trifluoroacetate salt (H 1194.1000, Bachem, Bubendorf, Switzerland) was used as calibration curve for Aβ1-40. It was solubilized in water-free DMSO (41647, Fluka) at a concentration of 1 mg/ml for approximately 30 min at room temperature (RT) and then visually checked for complete solubilization.
# Endogenous Aβ40 in mice was determined with the Meso Scale Discovery (MSD) 96-well MULTI-ARRAY human/rodent (4G8) Aβ40 Ultrasensitive Assay (#K110FTE-3, Meso Scale Discovery, Gaithersburg, USA). The assay was performed according to the manufacturer's instructions except for the calibration curve and the sample preparations. TritonX-100 (TX-100) soluble Aβ40 was extracted from forebrain with 1% TX-100 using a 50 μl aliquot of each 1:10 forebrain homogenate, mixed with 50 μl 2% TX-100 in TBS complete (20 mM Tris-HCl pH 7.4, 137 mM NaCl, 1× Complete [Protease Inhibitor Cocktail Tablets: 1 836 145, Roche Diagnostics GmbH, Penzberg Germany]) to reach a final concentration of 1% TX-100 and a 1:20 forebrain dilution. The samples were incubated for 15 min on ice and vortexed every 5 min. The samples were ultra-centrifuged (100000×g, 4° C., 15 min) and 50 μl of the clear supernatants were transferred to fresh tubes. For the Aβ40 assay the supernatants were further diluted 1:5 in 3% Blocker A solution (from kit) to a final forebrain dilution of 1:100 and applied to the plate.
# The calibration curve was prepared in a corresponding dilution of 1% Blocker A solution spiked with synthetic Aβ1-40 peptide (1.56-100 pg/ml) except for non-transgenic mouse brain samples: In this case, the calibration curve was prepared in a correspondingly diluted APP knockout mouse forebrain spiked with synthetic Aβ1-40 peptide (1.56-100 pg/ml). For all samples and standards 25 μl were applied per well. For each determination duplicate wells were performed. The mean values from the duplicate wells were used for calculations.
# At the last day of the study, groups of n=4 mice were sacrificed 4 hours and 24 hours after having received the last dose. Forebrain was separated, and analyzed for β-amyloid peptide 1-40. Concentrations of Aβ40 for the vehicle and treatment groups are summarized in Table 6 and visualised in FIG. 2. The percent of reduction versus the corresponding vehicle treated group was calculated.
smiles,measurement,setting,value
"C[C@@]1(c2nc(NC(=O)c3ncc(C(F)(F)F)cc3Cl)ccc2F)CO[C@@](C)(C(F)(F)F)C(N)=N1 [Compound 1, N-(6-((3R,6R)-5-amino-3,6-dimethyl-6-(trifluoromethyl)-3,6-dihydro-2H-1,4-oxazin-3-yl)-5-fluoropyridin-2-yl)-3-chloro-5-(trifluoromethyl)picolinamide]",exposure reduction 4h/24h,in vivo,2-5 fold
same,AUCbrain (AUC0-24 h),in vivo; 3 umol/kg,8.67 µmol·h/kg
same,AUCbrain (AUC0-24 h),in vivo; 10 umol/kg,15.83 µmol·h/kg
same,AUCbrain (AUC0-24 h),in vivo; 30 umol/kg,49.82 µmol·h/kg
same,AUC(0-t),in vivo; 3 umol/kg,1.56 µM·h
same,AUC(0-t),in vivo; 10 umol/kg,4.86 µM·h
same,AUC(0-t),in vivo; 30 umol/kg,14.9 µM·h
same,Average Aβ40 brain,"Aβ40; C57BL/6, 8 μmol/kg q.d. 8 weeks, 4 h after last dose",432.8 ± 140.5 pg/g
same,Average Aβ40 brain,"Aβ40; C57BL/6, 8 μmol/kg q.d. 8 weeks, 24 h after last dose",1098.6 ± 148.7 pg/g
same,% reduction vs vehicle (brain Aβ40),"Aβ40; C57BL/6, 8 μmol/kg, 4 h after last dose",67.1%
same,% reduction vs vehicle (brain Aβ40),"Aβ40; C57BL/6, 8 μmol/kg, 24 h after last dose",25% and 25.3%
same,Mini AU EC (brain Aβ40),"Aβ40; C57BL/6, 8 μmol/kg, after last dose",46.2%
same,Average Aβ40 brain,"Aβ40; C57BL/6, 50 μmol/kg q.d. 8 weeks, 4 h after last dose",93.4 ± 83.7 pg/g
same,Average Aβ40 brain,"Aβ40; C57BL/6, 50 μmol/kg q.d. 8 weeks, 24 h after last dose",233.8 ± 36.5 pg/g
same,% reduction vs vehicle (brain Aβ40),"Aβ40; C57BL/6, 50 μmol/kg, 4 h after last dose",92.9%
same,% reduction vs vehicle (brain Aβ40),"Aβ40; C57BL/6, 50 μmol/kg, 24 h after last dose",84.1%
same,Mini AU EC (brain Aβ40),"Aβ40; C57BL/6, 50 μmol/kg, after last dose",88.5%
same,Aβ40 reduction over the whole 24 hour time course,"Aβ40; C57BL/6, 50 μmoles/kg, after last dose",80-90%
